Experimental data published in publication PMC6469989 (ACS chemical biology, 2018).

Experiments:
Assay type in all cases: cell-based
[1] = system: mutant ERα (Y537S, D538G, L536R); assay: Inhibition of mutant ERα-mediated transcription; details: MCF-7 cells, 100 nM, 24 hours
[2] = system: MCF-7 cells expressing doxycycline-inducible Y537S mutant ERα; assay: cells; details: Homo sapiens, MCF7, 120 h, read-out: Inhibition of Proliferation IC50 (nM ± SD)
[3] = system: MCF-7 cells expressing doxycycline-inducible D538G mutant ERα; assay: Inhibition of MCF-7 cell proliferation driven by D538G mutant ERα; details: Homo sapiens, MCF7, 120 h, read-out: Inhibition of Proliferation IC50 (nM ± SD)
[4] = system: MCF-7 cells expressing doxycycline-inducible WT ERα; assay: Inhibition of MCF-7 cell proliferation driven by WT ERα; details: Homo sapiens, MCF7, 120 h, read-out: Inhibition of Proliferation IC50 (nM ± SD)
[5] = system: MCF-7 cells expressing doxycycline-inducible L536R mutant ERα; assay: Inhibition of MCF-7 cell proliferation driven by L536R mutant ERα; details: Homo sapiens, MCF7, 120 h, read-out: Inhibition of Proliferation IC50 (nM ± SD)

SMILES | inhibition of mutant ER transcriptional activity (in words) [1] | IC50 [2] [nM] | IC50 [3] [nM] | IC50 [4] [nM] | IC50 [5] [nM]
C[C@]12C[C@H](c3ccc(OCCCCCS(=O)(=O)CCCC(F)(F)C(F)(F)F)cc3)[C@@H]3c4ccc(O)cc4CC[C@H]3[C@@H]1CC[C@@H]2O [RU58668] | block much of the activity of all three mutants | – | – | – | –
C[C@]12CC[C@@H]3c4ccc(O)cc4C[C@@H](CCCCCCCCC[S+]([O-])CCCC(F)(F)C(F)(F)F)[C@H]3[C@@H]1CC[C@@H]2O (some centres unmarked) [fulvestrant] | – | 16 ± 1.8 | 5.9 ± 0.6 | 0.31 ± 0.03 | 2.6 ± 0.4
